Results on 56 compounds are retold here after PubChem BioAssay AID977621 (Broad Institute, 2014).

Each structure is given as a SMILES string. Inconclusive results are not listed.

The assay concerns E. coli H69 humanized mutant ribosome RFP strain growth, fluorescence, 24 h. As to the kind of experiment: growth inhibition of wild-type GFP E. coli, dose response, H69 mutant RFP, cherry-pick (AID 977621).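 Note: wild-type GFP and H69 mutant RFP strains grown together 50/50 in each well.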 The conditions noted are these: test 2.

In the case of `Cc1ccccc1-n1nnnc1SCCCC(=O)c1ccc(F)cc1`, the AC50 was determined as 6.72 µM. In the case of `CN1CCSc2ccc(C(=O)Nc3cccc(F)c3)cc21`, the AC50 is 0.837 µM.

On to `O=C(NCCc1csc(-c2ccccc2)n1)c1ccccc1F`, for which the AC50 came out at 49 µM. `Cn1c(CC2C(=O)Nc3ccc(Br)cc32)nc2ccccc2c1=O` (stereo unspecified) showed a half-maximal activity concentration (AC50) above 100 µM. As for `CCOc1cc(/C=C(\CC(=O)O)c2nc3ccccc3s2)ccc1OC`, the half-maximal activity concentration (AC50) was above 100 µM. In turn, `Fc1ccc(-c2nc3ccc(Cl)cn3c2Cc2cccc(Cl)c2)cc1` yielded an AC50 above 100 µM.

With `O=S(=O)(NCc1ccc2c(c1)OCO2)c1ccc2c(c1)oc1ccccc12`, the AC50 was 52.3 µM. Consider `CCCCn1c(=O)[nH]c(=O)c2c1nc(-c1ccccc1F)n2Cc1ccccc1`, for which the AC50 is above 100 µM.

`COC(=O)c1sccc1NC(=O)Cn1nnc(-c2ccccc2C)n1`: the AC50 worked out at 45.1 µM.

In the case of `Cc1cc(C)c(OCCN(C)Cc2ccccc2)c(Br)c1`, the AC50 was above 100 µM.

Compound `O=C(O)c1cc(-c2cccs2)nn1-c1cccc(Cl)c1` gave an AC50 of 46.1 µM.

Regarding `Cc1nn(C(C)(C)C)c(OC(=O)CC(C)C)c1S(=O)(=O)c1ccccc1`, the AC50 came out at 30.7 µM. With `O=C(CCNC(=O)c1ccccc1)Nc1ccc(Cl)c(S(=O)(=O)N2CCCCC2)c1`, the AC50 worked out at 42.6 µM. `COc1ccc(C2CC(c3cccs3)=Nc3ccccc3S2)cc1` (stereo unspecified): the AC50 turned out to be 1.44 µM. In turn, `CCOc1ccc(S(=O)(=O)N(C)c2ccc(OCC(=O)NCc3cccnc3)cc2)cc1` had an AC50 above 100 µM. With `O=C(O)c1cc2ccc3ccccc3c2[nH]1`, the concentration at half-maximal activity (AC50) came out at 7.13 µM.

`CCN(CC)CC(=O)Nc1sc2c(c1C(=O)c1ccccc1OC)CCC2` registered an AC50 of 48.3 µM. `COc1cccc(CNC(=O)CCSCc2ccccc2F)c1`: the AC50 is above 100 µM.

As for `Cc1noc(C)c1NC(=O)Nc1ccc2c(c1)C(=O)N([C@@H](C)CO)C[C@@H](C)[C@H](CN(C)C(=O)Nc1ccc3c(c1)OCO3)OCCCC[C@H](C)O2`, the AC50 is above 100 µM.

With `CCc1c(N=O)c(-c2ccccc2)n(O)[n+]1[O-]`, the AC50 was 6.29 µM. `O=C(COC(=O)C1CC2C=CC1C2)Nc1ccc([N+](=O)[O-])cc1` (stereo unspecified) yielded an AC50 above 100 µM. In the case of `CC1Sc2ccc(S(=O)(=O)NCc3ccccc3)cc2NC1=O` (stereo unspecified), the AC50 is above 100 µM. In turn, `Cc1noc(NS(=O)(=O)c2ccc(NC(=O)c3cc(-c4ccccc4Cl)nc4ccccc34)cc2)c1C` had a half-maximal activity concentration (AC50) of 45.6 µM. On to `CCOC(=O)C1CCCN(Cc2c(Cl)cccc2Cl)C1` (stereo unspecified), for which the AC50 worked out at 6.66 µM. `CCc1cccc(NC(=O)c2ccc3c(=O)n4c(nc3c2)CCCCC4)c1` yielded a half-maximal activity concentration (AC50) above 100 µM. Compound `O=C(O)c1cccnc1SCc1ccccc1Cl` yielded an AC50 of 35.9 µM. As for `COc1ccc(-c2csc(NC(=O)c3ccccc3S(C)(=O)=O)n2)cc1`, the AC50 was above 100 µM. The same measure for `Oc1ccc(-c2csc(Nc3ncccn3)n2)cc1`: above 100 µM; for `O=C(OCC1COc2ccccc2O1)c1ccccc1F` (stereo unspecified): above 100 µM. Turning to `CCCc1nc2oc3c(NCCCN(C)C)ncnc3c2c2c1CCCC2`, the concentration at half-maximal activity (AC50) stood at 6.74 µM. `COc1ccc2c(c1)c(C(C)=O)c(C)n2CCc1ccc(OC)c(OC)c1` had an AC50 of 51 µM. On to `Brc1ccccc1Cn1c(-c2cncs2)nc2ccccc21`, for which the AC50 is above 100 µM. As to `Cc1onc(-c2ccccc2Cl)c1C(=O)OCC(=O)c1ccccc1`, the AC50 amounted to 45.6 µM. In turn, `O=C1c2ccccc2CSc2c(O)cccc21` registered an AC50 of 45.9 µM.

In the case of `C[C@H]1CN([C@@H](C)CO)C(=O)CCCn2nncc2CO[C@@H]1CN(C)Cc1ccccc1C(F)(F)F`, the AC50 was above 100 µM. The compound `COc1ccc(OC2C(=O)N(Cc3ccc4c(c3)OCO4)C2c2cccs2)cc1` (stereo unspecified) gave an AC50 of 47.4 µM.

Compound `FC(F)(F)c1ccc(Cl)c(-n2c(Cc3cccs3)n[nH]c2=S)c1` gave an AC50 above 100 µM. In the case of `COC(=O)c1cc(C(=O)Cc2ccccc2)c[nH]1`, the AC50 is above 100 µM. The compound `Cc1cc(-c2ccc(C)c(S(=O)(=O)NCC3CCN(Cc4ccccc4F)CC3)c2)on1` gave an AC50 above 100 µM. Compound `O=C1CCCCC1Nc1ccc(Br)cc1` (stereo unspecified) gave an AC50 above 100 µM.

`O=C1N2c3ccccc3CCc3cccc(c32)C1(O)C(F)(F)F` (stereo unspecified) yielded an AC50 of 43.6 µM. Consider `O=S(=O)(c1cccc(-c2nc3ccccc3s2)c1)N1CCCC1`, for which the AC50 was above 100 µM. The same measure for `O=C(Nc1nnc(Cc2ccc(Cl)cc2)s1)c1ccncc1`: above 100 µM. Turning to `Cc1c(CCOC(=O)C23CC4CC(CC(C4)C2)C3)sc[n+]1Cc1ccccc1`, the AC50 turned out to be 4.41 µM.

`Cc1ccc(S(=O)(=O)N(C(=O)c2ccncc2)c2ccc(OC(=O)c3ccncc3)cc2)c(C)c1`: the AC50 is above 100 µM. The same measure for `NC(=O)c1ccccc1OCCOc1ccc(Br)cc1`: above 100 µM. On to `COc1ccc(OC)c(N(CC(=O)Nc2ccccc2F)S(=O)(=O)c2ccccc2)c1`, for which the half-maximal activity concentration (AC50) came out at 4.66 µM. The compound `CCc1cc2c(=O)n(Cc3ccccc3)c(SC3CCOC3=O)nc2s1` (stereo unspecified) registered an AC50 of 52.3 µM. `O=C(Nc1nc(-c2ccc3ccccc3c2)cs1)C1CCN(S(=O)(=O)c2cccs2)CC1` showed an AC50 above 100 µM. For `Cc1ccc(Cl)cc1N1CCN(C(=O)c2ccc3nc[nH]c3c2)CC1`, the AC50 was determined as 51.4 µM. The same measure for `COc1ccc(CNC(=O)c2sc3nc4c(c(C(F)(F)F)c3c2N)CCC4)cc1OC`: 13.9 µM; for `O=C(COC(=O)CCC(=O)c1ccc(F)cc1)NCCc1ccccc1`: above 100 µM; for `CCCCNC(=O)C[C@@H]1C[C@@]2(C(=O)OC)CCCCC=C2N(Cc2ccccc2)C1=O`: above 100 µM.

Consider `Cc1ccc(NC(=O)CN(C)S(=O)(=O)c2cccc3cccnc23)cc1F`, for which the AC50 is above 100 µM. Compound `C=CCNC(=O)c1ccccc1CCc1ccccc1` had an AC50 above 100 µM. As for `CNC(=O)c1ccsc1NC(=O)c1ccc(S(=O)(=O)N2CCc3ccccc32)cc1`, the AC50 came to 2.19 µM.

What is called AC50 is the midpoint of the concentration-response curve, whichever way the signal moves. A higher AC50 goes with weaker potency.
